Experimental findings from patent US12371410B2, “Isoxazoline compounds and use thereof” (METISA BIOTECHNOLOGY CO., LTD, priority 2019, dated 2025) are described below.

Holding throughout (assay type): in vivo
Assay [1] deals with Plutella xylostella. The assay is described as follows: Insecticidal activity against Plutella xylostella, Airbrush spraying of cabbage leaf discs. The following applies: foliar, 72 h; for pest or weed control at 0.313 µg/mL: dose 0.313 mg/L; for pest or weed control at 0.313 µg/mL / pest or weed control at 0.156 µg/mL: three days after administration, 3rd instar larvae, read-out: lethality rate to Plutella xylostella; for mortality at 0.156 µg/mL: 0.156 mg/L, read-out: Mortality (%, 3 days after administration) 0.156 mg/L; for mortality at 0.156 µg/mL / mortality at 0.313 µg/mL / mortality at 0.625 µg/mL / mortality at 1.25 µg/mL: parallel comparative test; for mortality at 0.313 µg/mL: 0.313 mg/L, read-out: Mortality (%, 3 days after administration) 0.313 mg/L; for mortality at 0.625 µg/mL: 0.625 mg/L, read-out: Mortality (%, 3 days after administration) 0.625 mg/L; for mortality at 1.25 µg/mL: 1.25 mg/L, read-out: Mortality (%, 3 days after administration) 1.25 mg/L; for pest or weed control at 0.156 µg/mL: dose 0.156 mg/L. On the procedure:
(§1) The compound to be determined was dissolved in a mixed solvent of acetone/methanol (1:1), followed by dilution with water containing 0.1% (wt) Tween 80 to a desired concentration.
(§2) The activities of the respective compounds against Leucania separata, Plutella xylostella, and Chilo suppressalis were determined by Airbrush spraying method.
(§3) The determination method was as follows: Cabbage leaves were made into leaf discs with a diameter of 2 cm by using a hole puncher; the pressure of Airbrush spraying was 10 psi (about 0.7 kg/cm^2); both sides of each leaf disc were sprayed with 0.5 mL of the compound solution to be tested. After drying in the shade, ten 3rd instar larvae were inoculated for each treatment, and each treatment was replicated 3 times. After treatment, they were cultured in an observation room at a temperature of 25° C. and a relative humidity of 60-70%, and the number of surviving insects was examined and the mortality was calculated three days after administration.

Assay [2] has as its system Chilo suppressalis. Kind of assay: Insecticidal activity against Chilo suppressalis, spraying of rice seedlings. The note with it: 72 h; for mortality at 0.25 µg/mL: 0.25 mg/L, read-out: Mortality (%, 3 days after administration) 0.25 mg/L; for mortality at 0.25 µg/mL / mortality at 0.5 µg/mL / mortality at 1 µg/mL / mortality at 5 µg/mL: parallel comparative test; for mortality at 0.5 µg/mL: 0.5 mg/L, read-out: Mortality (%, 3 days after administration) 0.5 mg/L; for mortality at 1 µg/mL: 1 mg/L, read-out: Mortality (%, 3 days after administration) 1 mg/L; for mortality at 5 µg/mL: 5 mg/L, read-out: Mortality (%, 3 days after administration) 5 mg/L; for pest or weed control at 1 µg/mL: dose 1 mg/L; for pest or weed control at 1 µg/mL / pest or weed control at 0.5 µg/mL: 3 days after administration, 3rd instar larvae, read-out: lethality rate to Chilo suppressalis; for pest or weed control at 0.5 µg/mL: dose 0.5 mg/L. On the procedure:
as §1, §2
The determination method was as follows: 1) Preparation of rice seedlings: rice plants were cultivated in a plastic cup with a diameter of 4.5 cm and a height of 4 cm in a thermostatic chamber (temperature 26-28° C., relative humidity 60-80%, illumination 16 hL: 8 hD), and when the rice plants were developed to have 4-5 leaves, strong seedlings with identical growth vigour were selected for chemical treatment, and each treatment was replicated 3 times. 2) Preparation of insects to be tested: Chilo suppressalis, 3rd instar larvae, continuous lab rearing. 3) Inoculation of insects by spraying rice plant stems: The whole rice seedlings were sprayed evenly by using the spraying method, with 15 mL of the compound solution for each treatment. Firstly, the blank control was treated, and then the above procedure was replicated according to the order of test concentration from low to high. After rice seedlings were spray-treated, they were placed in the shade to dry, and the stems about 5 cm from the stem bases were cut off to feed the insects to be tested. Glass culture dishes with a diameter of 90 mm were prepared; each dish was padded with a filter paper at the bottom and added with water to keep moisture; about 5 rice stems were put into each dish and inoculated with 10 larvae, and each culture dish was then sealed with a non-woven and cultured in a thermostatic chamber. The number of residual live insects was examined 3 days after administration.

The test system of assay [3] is Tetranychus cinnabarinus. The assay is described as follows: Acaricidal activity against Tetranychus cinnabarinus in greenhouse, bean seedling spraying. The note with it: solution concentration 5 mg/L, adult mites, after 72 hours, read-out: lethality rate to Tetranychus cinnabarinus. As for the experimental part:
A bean seedling with two true leaves was taken for inoculating 30-40 adult mites of Tetranychus cinnabarinus. After examining the cardinal number, the whole seedling was treated by spraying with a hand-held sprayer, each treatment being replicated 3 times, and then placed in a standard observation room. The number of surviving mites was examined after 72 hours, and the mortality was calculated.

The test system of assay [4] is Leucania separata. The assay is described as follows: Insecticidal activity against Leucania separata, Airbrush spraying of corn leaf segments. The following applies: Mythimna separata, foliar, 72 h; dose 0.05 mg/L, three days after administration, 3rd instar larvae; read-out: lethality rate to Leucania separata. As for the experimental part:
as §1, §2
as §3, with “Corn” for “Cabbage”, “cut” for “made”, “into” for “into leaf discs with a diameter of”, “long segments;” for “by using a hole puncher;”, “segment” for “disc”, “3nd” for “3rd”

As to `Cc1cc(C2=NOC(c3cc(Cl)cc(Cl)c3)(C(F)(F)F)C2)ccc1C(=O)N(CC(=O)NCC(F)(F)F)C(=O)C1CC1` (stereo not shown) [Compound 1], in assay [1], the pest or weed control at 0.313 µg/mL was > 90%. In assay [2], the mortality at 0.25 µg/mL was determined as 73.3%, the mortality at 0.5 µg/mL stood at 83.3%, the mortality at 1 µg/mL was 100% and the mortality at 5 µg/mL worked out at 100%. In addition, the pest or weed control at 1 µg/mL in assay [2] was > 90%. For the same compound, in assay [3], the pest or weed control at 5 µg/mL is ≥ 90%. In addition, the pest or weed control at 0.05 µg/mL in assay [4] was > 90%.

For the compound `Cc1cc(C2=NOC(c3cc(Cl)c(F)c(Cl)c3)(C(F)(F)F)C2)ccc1C(=O)N(CC(=O)NCC(F)(F)F)C(=O)C1CC1` (stereo not shown) [Compound 2], the pest or weed control at 0.313 µg/mL in assay [1] is > 90%. Besides, the pest or weed control at 1 µg/mL in assay [2] was > 90%. Also, the pest or weed control at 5 µg/mL in assay [3] was ≥ 90%. The pest or weed control at 0.05 µg/mL in assay [4] was > 90%.

For `COCC(=O)N(CC(=O)NCC(F)(F)F)C(=O)c1ccc(C2=NOC(c3cc(Cl)cc(Cl)c3)(C(F)(F)F)C2)cc1C` (stereo not shown) [Compound 19], in assay [1], the mortality at 0.156 µg/mL amounted to 100%, the mortality at 0.313 µg/mL is 100%, the mortality at 0.625 µg/mL was 100% and the mortality at 1.25 µg/mL was determined as 100%. In addition, in assay [1], the pest or weed control at 0.156 µg/mL was > 90% and the pest or weed control at 0.313 µg/mL is > 90%. Also, in assay [2], the mortality at 0.25 µg/mL came to 86.7%, the mortality at 0.5 µg/mL stood at 100%, the mortality at 1 µg/mL is 100% and the mortality at 5 µg/mL is 100%. Moreover, in assay [2], the pest or weed control at 0.5 µg/mL is > 90% and the pest or weed control at 1 µg/mL was > 90%. Further, the pest or weed control at 5 µg/mL in assay [3] is ≥ 90%. In addition, the pest or weed control at 0.05 µg/mL in assay [4] is > 90%.

With `CCOCC(=O)N(CC(=O)NCC(F)(F)F)C(=O)c1ccc(C2=NOC(c3cc(Cl)cc(Cl)c3)(C(F)(F)F)C2)cc1C` (stereo not shown) [Compound 21], in assay [1], the pest or weed control at 0.156 µg/mL was > 90% and the pest or weed control at 0.313 µg/mL is > 90%. Further, in assay [2], the pest or weed control at 0.5 µg/mL is > 90% and the pest or weed control at 1 µg/mL was > 90%. In assay [3], the pest or weed control at 5 µg/mL was ≥ 90%. Also, the pest or weed control at 0.05 µg/mL in assay [4] is > 90%.

As for `CCOCC(=O)N(CC(=O)NCC(F)(F)F)C(=O)c1ccc(C2=NOC(c3cc(Cl)c(F)c(Cl)c3)(C(F)(F)F)C2)cc1C` (stereo not shown) [Compound 22], in assay [1], the pest or weed control at 0.156 µg/mL is > 90% and the pest or weed control at 0.313 µg/mL was > 90%. In assay [2], the pest or weed control at 1 µg/mL is > 90%. Besides, in assay [3], the pest or weed control at 5 µg/mL was ≥ 90%. Further, in assay [4], the pest or weed control at 0.05 µg/mL is > 90%.

`CCCCOCC(=O)N(CC(=O)NCC(F)(F)F)C(=O)c1ccc(C2=NOC(c3cc(Cl)cc(Cl)c3)(C(F)(F)F)C2)cc1C` (stereo not shown) [Compound 27]: in assay [1], the pest or weed control at 0.156 µg/mL was > 90% and the pest or weed control at 0.313 µg/mL was > 90%. For the same compound, in assay [2], the pest or weed control at 0.5 µg/mL was > 90% and the pest or weed control at 1 µg/mL is > 90%. Further, the pest or weed control at 5 µg/mL in assay [3] was ≥ 90%. The pest or weed control at 0.05 µg/mL in assay [4] is > 90%.

For `COCCC(=O)N(CC(=O)NCC(F)(F)F)C(=O)c1ccc(C2=NOC(c3cc(Cl)cc(Cl)c3)(C(F)(F)F)C2)cc1C` (stereo not shown) [Compound 31], in assay [1], the mortality at 0.156 µg/mL was 100%, the mortality at 0.313 µg/mL was found to be 100%, the mortality at 0.625 µg/mL turned out to be 100% and the mortality at 1.25 µg/mL worked out at 100%. For the same compound, in assay [1], the pest or weed control at 0.156 µg/mL was > 90% and the pest or weed control at 0.313 µg/mL was > 90%. In assay [2], the mortality at 0.25 µg/mL was found to be 80%, the mortality at 0.5 µg/mL is 96.7%, the mortality at 1 µg/mL stood at 100% and the mortality at 5 µg/mL amounted to 100%. Further, in assay [2], the pest or weed control at 0.5 µg/mL was > 90% and the pest or weed control at 1 µg/mL is > 90%. Also, the pest or weed control at 5 µg/mL in assay [3] was ≥ 90%. Moreover, the pest or weed control at 0.05 µg/mL in assay [4] was > 90%.

Consider `CCOCCC(=O)N(CC(=O)NCC(F)(F)F)C(=O)c1ccc(C2=NOC(c3cc(Cl)cc(Cl)c3)(C(F)(F)F)C2)cc1C` (stereo not shown) [Compound 33], for which, in assay [1], the pest or weed control at 0.156 µg/mL was > 90% and the pest or weed control at 0.313 µg/mL is > 90%. For the same compound, in assay [2], the pest or weed control at 0.5 µg/mL is > 90% and the pest or weed control at 1 µg/mL was > 90%. For the same compound, the pest or weed control at 5 µg/mL in assay [3] was ≥ 90%. Moreover, in assay [4], the pest or weed control at 0.05 µg/mL was > 90%.

As to `CCOCCC(=O)N(CC(=O)NCC(F)(F)F)C(=O)c1ccc(C2=NOC(c3cc(Cl)c(F)c(Cl)c3)(C(F)(F)F)C2)cc1C` (stereo not shown) [Compound 34], in assay [1], the pest or weed control at 0.156 µg/mL was > 90% and the pest or weed control at 0.313 µg/mL is > 90%. The pest or weed control at 1 µg/mL in assay [2] is > 90%. Also, the pest or weed control at 5 µg/mL in assay [3] was ≥ 90%. For the same compound, in assay [4], the pest or weed control at 0.05 µg/mL was > 90%.

Consider `COC(=O)N(CC(=O)NCC(F)(F)F)C(=O)c1ccc(C2=NOC(c3cc(Cl)cc(Cl)c3)(C(F)(F)F)C2)cc1C` (stereo not shown) [KC1, reference compound], for which, in assay [1], the mortality at 0.156 µg/mL stood at 20%, the mortality at 0.313 µg/mL is 36.7%, the mortality at 0.625 µg/mL came out at 70% and the mortality at 1.25 µg/mL amounted to 100%. In addition, in assay [2], the mortality at 0.25 µg/mL came to 0%, the mortality at 0.5 µg/mL amounted to 0%, the mortality at 1 µg/mL amounted to 0% and the mortality at 5 µg/mL stood at 10%. Besides, the pest or weed control at 5 µg/mL in assay [3] was 0%.

Consider `CC(=O)N(CC(=O)NCC(F)(F)F)C(=O)c1ccc(C2=NOC(c3cc(Cl)cc(Cl)c3)(C(F)(F)F)C2)cc1C` (stereo not shown) [KC2, reference compound], for which, in assay [2], the mortality at 0.25 µg/mL was determined as 0%, the mortality at 0.5 µg/mL turned out to be 53.3%, the mortality at 1 µg/mL is 100% and the mortality at 5 µg/mL was 100%.

On to `CCC(=O)N(CC(=O)NCC(F)(F)F)C(=O)c1ccc(C2=NOC(c3cc(Cl)cc(Cl)c3)(C(F)(F)F)C2)cc1C` (stereo not shown) [KC3, reference compound], for which, in assay [2], the mortality at 0.25 µg/mL was 0%, the mortality at 0.5 µg/mL is 30%, the mortality at 1 µg/mL amounted to 100% and the mortality at 5 µg/mL came to 100%.
